Test results as given in patent US7858630B2, “D3 and 5-HT2A receptor modulators” (Hoffmann-La Roche Inc., priority 2008, dated 2010).

Tests used:
[1] = target: T1, human serotonin 5-HT2A receptor (Homo sapiens, UniProt P28223); assay: Radioligand binding ([3H]-ketanserin) to membranes of HEK-293 EBNA cells expressing human 5-HT2A receptor; settings: 1.1 nM [3H]-ketanserin, HEK-293 EBNA membranes, 1 h at RT
T1 construct: expressed in transfected cells; host or cells: HEK-293 EBNA cells, transient transfection; membrane preparation
T1 sequence (P28223 whole entry): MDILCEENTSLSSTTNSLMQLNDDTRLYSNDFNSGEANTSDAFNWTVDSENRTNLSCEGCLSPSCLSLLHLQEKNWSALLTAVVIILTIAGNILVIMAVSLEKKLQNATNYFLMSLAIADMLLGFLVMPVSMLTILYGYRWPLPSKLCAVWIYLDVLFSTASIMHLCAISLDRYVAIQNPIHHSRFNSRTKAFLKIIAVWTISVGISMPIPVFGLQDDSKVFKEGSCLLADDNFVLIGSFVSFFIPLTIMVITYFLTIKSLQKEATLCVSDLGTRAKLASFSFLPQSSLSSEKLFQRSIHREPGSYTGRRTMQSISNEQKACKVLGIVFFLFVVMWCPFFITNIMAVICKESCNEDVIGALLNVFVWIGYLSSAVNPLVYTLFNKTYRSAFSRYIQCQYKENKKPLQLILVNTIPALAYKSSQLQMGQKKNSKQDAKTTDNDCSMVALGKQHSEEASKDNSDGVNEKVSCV
Method in brief: (§1)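 Membranes from HEK-293 EBNA cells transiently transfected with the receptor were incubated 1 h at RT with ten test concentrations (10 μM–0.1 nM) and ~0.7 nM [3H]-spiperone (D2), 0.5 nM [3H]-spiperone (D3) or 1.1 nM [3H]-ketanserin (5-HT2A). Nonspecific binding was set with 10 μM spiperone, bound radioactivity was read by filtration and scintillation, and Ki was taken from IC50 via Cheng-Prusoff.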

[2] = target: T2, human dopamine D3 receptor (Homo sapiens, UniProt P35462); assay: Radioligand binding ([3H]-spiperone) to membranes of HEK-293 EBNA cells expressing human D3 receptor; settings: human D3, 0.5 nM [3H]-spiperone, HEK-293 EBNA membranes, 1 h at RT
T2 construct: expressed in transfected cells; host or cells: HEK-293 EBNA cells, transient transfection; membrane preparation
T2 sequence (P35462 whole entry): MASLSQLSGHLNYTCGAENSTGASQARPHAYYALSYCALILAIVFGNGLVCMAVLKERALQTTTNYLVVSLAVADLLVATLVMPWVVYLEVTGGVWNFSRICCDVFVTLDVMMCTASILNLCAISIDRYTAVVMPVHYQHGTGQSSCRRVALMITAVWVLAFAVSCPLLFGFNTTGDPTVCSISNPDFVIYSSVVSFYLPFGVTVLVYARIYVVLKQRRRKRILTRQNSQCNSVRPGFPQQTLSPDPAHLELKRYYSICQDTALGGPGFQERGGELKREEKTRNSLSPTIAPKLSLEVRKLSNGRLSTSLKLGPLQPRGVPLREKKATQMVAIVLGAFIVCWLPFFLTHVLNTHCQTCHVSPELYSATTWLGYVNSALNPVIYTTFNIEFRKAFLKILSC
Method in brief: as §1

[3] = target: T3, human dopamine D2 receptor (Homo sapiens, UniProt P14416); assay: Radioligand binding ([3H]-spiperone) to membranes of HEK-293 EBNA cells expressing human D2 receptor; settings: human D2, 0.7 nM [3H]-spiperone, HEK-293 EBNA membranes, 1 h at RT
T3 construct: expressed in transfected cells; host or cells: HEK-293 EBNA cells, transient transfection; membrane preparation
T3 sequence (P14416 whole entry): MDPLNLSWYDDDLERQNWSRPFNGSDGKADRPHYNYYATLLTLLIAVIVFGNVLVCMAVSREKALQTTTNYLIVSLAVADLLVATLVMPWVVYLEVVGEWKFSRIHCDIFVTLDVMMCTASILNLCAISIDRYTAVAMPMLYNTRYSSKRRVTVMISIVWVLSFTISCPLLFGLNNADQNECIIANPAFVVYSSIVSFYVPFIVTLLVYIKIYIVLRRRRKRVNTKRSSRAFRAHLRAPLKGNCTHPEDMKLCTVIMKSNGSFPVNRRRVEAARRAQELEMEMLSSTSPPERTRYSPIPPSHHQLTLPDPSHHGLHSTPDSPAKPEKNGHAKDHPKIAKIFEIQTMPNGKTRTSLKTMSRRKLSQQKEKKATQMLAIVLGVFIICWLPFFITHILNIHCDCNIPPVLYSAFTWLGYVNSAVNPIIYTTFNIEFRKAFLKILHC
Method in brief: as §1

Ki [1] [nM]	Ki [2] [nM]	Ki [3] [nM]	Structure (SMILES)
13.1	6.18	396	COCCC(=O)N[C@H]1CC[C@H](CCN2CCN(c3noc4cc(F)c(F)cc34)CC2)CC1 [Example 57, N-trans-(4-{2-[4-(5,6-Difluoro-benzo[d]isoxazol-3-yl)-piperazin-1-yl]-ethyl}-cyclohexyl)-3-methoxy-propionamide]
9.92	13.4	352	COC1(CC(=O)N[C@H]2CC[C@H](CCN3CCN(c4noc5cc(F)c(F)cc45)CC3)CC2)CCOCC1 [Example 62, N-trans-(4-{2-[4-(5,6-Difluoro-benzo[d]isoxazol-3-yl)-piperazin-1-yl]-ethyl}-cyclohexyl)-2-(4-methoxy-tetrahydro-pyran-4-yl)-acetamide]
11.8	10.1	598	CC(C)(O)CC(=O)N[C@H]1CC[C@H](CCN2CCN(c3noc4cc(F)c(F)cc34)CC2)CC1 [Example 64, N-trans-(4-{2-[4-(5,6-Difluoro-benzo[d]isoxazol-3-yl)-piperazin-1-yl]-ethyl}-cyclohexyl)-3-hydroxy-3-methyl-butyramide]
6.94	26.3	2930	COC1CCC(C(=O)N[C@H]2CC[C@H](CCN3CCN(c4noc5cc(F)c(F)cc45)CC3)CC2)CC1 (stereo partly drawn) [Example 66, 4-Methoxy-cyclohexanecarboxylic acid N-trans(4-{2-[4-(5,6-difluoro-benzo[d]isoxazol-3-yl)-piperazin-1-yl]-ethyl}-cyclohexyl)-amide]
17.8	16.4	641	CCS(=O)(=O)N[C@H]1CC[C@H](CCN2CCN(c3noc4cc(F)c(F)cc34)CC2)CC1 [Example 68, Ethanesulfonic acid N-trans-(4-{2-[4-(5,6-difluoro-benzo[d]isoxazol-3-yl)-piperazin-1-yl]-ethyl}-cyclohexyl)-amide]
6.33	13.1	862	O=C(CC1OCCCO1)N[C@H]1CC[C@H](CCN2CCN(c3noc4cc(F)c(F)cc34)CC2)CC1 [Example 69, N-trans-(4-{2-[4-(5,6-Difluoro-benzo[d]isoxazol-3-yl)-piperazin-1-yl]-ethyl}-cyclohexyl)-2-[1,3]dioxan-2-yl-acetamide]
68.1	7.15	852	CCC(=O)N[C@H]1CC[C@H](CCN2CCN(c3noc4cc(Cl)c(F)cc34)CC2)CC1 [Example 70, N-trans-(4-{2-{4-(6-Chloro-5-fluoro-benzo[d]isoxazol-3-yl)-piperazin-1-yl]-ethyl}-cyclohexyl)-propionamide]
36.6	24.3	11300	O=C(CC1CCOCC1)N[C@H]1CC[C@H](CCN2CCN(c3noc4cc(Cl)c(F)cc34)CC2)CC1 [Example 72, N-trans-(4-{2-[4-(6-Chloro-5-fluoro-benzo[d]isoxazol-3-yl)-piperazin-1-yl]-ethyl}-cyclohexyl)-2-(tetrahydro-pyran-4-yl)-acetamide]
5.92	1.65	1500	O=C(CC1CC1)N[C@H]1CC[C@H](CCN2CCN(c3noc4cc(F)c(Cl)cc34)CC2)CC1 [Example 75, N-trans-(4-{2-[4-(5-Chloro-6-fluoro-benzo[d]isoxazol-3-yl)-piperazin-1-yl]-ethyl}-cyclohexyl)-2-cyclopropyl-acetamide]
20.4	19.9	632	O=C(CC1COCCO1)N[C@H]1CC[C@H](CCN2CCN(c3noc4cc(F)c(Cl)cc34)CC2)CC1 (stereo partly drawn) [Example 76, N-trans-(4-{2-[4-(5-Chloro-6-fluoro-benzo[d]isoxazol-3-yl)-piperazin-1-yl]-ethyl}-cyclohexyl)-2-[1,4]dioxan-2-yl-acetamide]
2.26	6.06	2300	O=C(CC1OCCCO1)N[C@H]1CC[C@H](CCN2CCN(c3noc4cc(F)c(Cl)cc34)CC2)CC1 [Example 77, N-trans-(4-{2-[4-(5-Chloro-6-fluoro-benzo[d]isoxazol-3-yl)-piperazin-1-yl]-ethyl}-cyclohexyl)-2-[1,3]dioxan-2-yl-acetamide]
5.05	6.26	1310	COC(CC(=O)N[C@H]1CC[C@H](CCN2CCN(c3noc4cc(F)c(Cl)cc34)CC2)CC1)OC [Example 78, N-trans-(4-{2-[4-(5-Chloro-6-fluoro-benzo[d]isoxazol-3-yl)-piperazin-1-yl]-ethyl}-cyclohexyl)-3,3-dimethoxy-propionamide]
2.48	5.47	6870	O=C(C[C@H]1C[C@H](CO)C1)N[C@H]1CC[C@H](CCN2CCN(c3noc4cc(F)c(Cl)cc34)CC2)CC1 [Example 79, N-trans-(4-{2-[4-(5-Chloro-6-fluoro-benzo[d]isoxazol-3-yl)-piperazin-1-yl]-ethyl}-cyclohexyl)-2-trans-(3-hydroxymethyl-cyclobutyl)-acetamide]

The next lines start with the molecule.

Structure (SMILES)	Ki [1] [nM]	Ki [2] [nM]	Ki [3] [nM]
CC(=O)N[C@H]1CC[C@H](CCN2CCN(c3noc4cc(F)c(F)cc34)CC2)CC1 [Example 56, N-trans-(4-{2-[4-(5,6-Difluoro-benzo[d]isoxazol-3-yl)-piperazin-1-yl]-ethyl}-cyclohexyl)-acetamide]	12	5.83	380
CO[C@H]1CC[C@H](CC(=O)N[C@H]2CC[C@H](CCN3CCN(c4noc5cc(F)c(F)cc45)CC3)CC2)CC1 [Example 58, N-trans-(4-{2-[4-(5,6-Difluoro-benzo[d]isoxazol-3-yl)-piperazin-1-yl]-ethyl}-cyclohexyl)-2-trans-(4-methoxy-cyclohexyl)-acetamide]	7.59	14.4	11300
CCC(=O)N[C@H]1CC[C@H](CCN2CCN(c3noc4cc(F)c(F)cc34)CC2)CC1 [Example 59, N-trans-(4-{2-[4-(5,6-Difluoro-benzo[d]isoxazol-3-yl)-piperazin-1-yl]-ethyl}-cyclohexyl)-propionamide]	14.8	9.88	389
COCC(=O)N[C@H]1CC[C@H](CCN2CCN(c3noc4cc(F)c(F)cc34)CC2)CC1 [Example 60, N-trans-(4-{2-[4-(5,6-Difluoro-benzo[d]isoxazol-3-yl)-piperazin-1-yl]-ethyl}-cyclohexyl)-2-methoxy-acetamide]	9.5	20.4	878
O=C(CC1(O)CCOCC1)N[C@H]1CC[C@H](CCN2CCN(c3noc4cc(F)c(F)cc34)CC2)CC1 [Example 61, N-trans-(4-{2-[4-(5,6-Difluoro-benzo[d]isoxazol-3-yl)-piperazin-1-yl]-ethyl}-cyclohexyl)-2-(4-hydroxy-tetrahydro-pyran-4-yl)-acetamide]	8.45	10.1	811
O=C(CC1CCOCC1)N[C@H]1CC[C@H](CCN2CCN(c3noc4cc(F)c(F)cc34)CC2)CC1 [Example 63, N-trans-(4-{2-[4-(5,6-Difluoro-benzo[d]isoxazol-3-yl)-piperazin-1-yl]-ethyl}-cyclohexyl)-2-(tetrahydro-pyran-4-yl)-acetamide]	6.88	7.13	9710
O=C(N[C@H]1CC[C@H](CCN2CCN(c3noc4cc(F)c(F)cc34)CC2)CC1)C1CCOCC1 [Example 67, Tetrahydro-pyran-4-carboxylic acid N-trans-(4-{2-[4-(5,6-difluoro-benzo[d]isoxazol-3-yl)-piperazin-1-yl]-ethyl}-cyclohexyl)-amide]	7.72	30	2670
COCCC(=O)N[C@H]1CC[C@H](CCN2CCN(c3noc4cc(Cl)c(F)cc34)CC2)CC1 [Example 71, N-trans-(4-{2-[4-(6-Chloro-5-fluoro-benzo[d]isoxazol-3-yl)-piperazin-1-yl]-ethyl}-cyclohexyl)-3-methoxy-propionamide]	89.2	20.1	1430
CC(=O)N[C@H]1CC[C@H](CCN2CCN(c3noc4cc(F)c(Cl)cc34)CC2)CC1 [Example 73, N-trans-(4-{2-[4-(5-Chloro-6-fluoro-benzo[d]isoxazol-3-yl)-piperazin-1-yl]-ethyl}-cyclohexyl)-acetamide]	16.8	9.74	559
COCCC(=O)N[C@H]1CC[C@H](CCN2CCN(c3noc4cc(F)c(Cl)cc34)CC2)CC1 [Example 74, N-trans-(4-{2-[4-(5-Chloro-6-fluoro-benzo[d]isoxazol-3-yl)-piperazin-1-yl]-ethyl}-cyclohexyl)-3-methoxy-propionamide]	12.2	10.1	260
COC[C@H]1C[C@H](CC(=O)N[C@H]2CC[C@H](CCN3CCN(c4noc5cc(F)c(Cl)cc45)CC3)CC2)C1 [Example 80, N-trans-(4-{2-[4-(5-Chloro-6-fluoro-benzo[d]isoxazol-3-yl)-piperazin-1-yl]-ethyl}-cyclohexyl)-2-trans-(3-methoxymethyl-cyclobutyl)-acetamide]	2.98	6.42	11700
CSCCC(=O)N[C@H]1CC[C@H](CCN2CCN(c3noc4cc(F)c(Cl)cc34)CC2)CC1 [Example 81, N-trans-(4-{2-[4-(5-Chloro-6-fluoro-benzo[d]isoxazol-3-yl)-piperazin-1-yl]-ethyl}-cyclohexyl)-3-methylsulfanyl-propionamide]	5.28	4.38	11100
